Measured values reported in patent US20040047804A1, “Enhanced radiation therapy” (The General Hospital Corporation, a Massachusetts …, priority 1998, published 2004).
Where two headings read alike, the source gives them in different places.

Columns and labels:
VX2 tumors [1] = tested on: VX2 tumors
Procedure: About […] of either a small molecule radiodense material (iohexol) or a large molecule radiodense material (WIN 8883) was injected directly into separate VX2 tumors growing in the thigh of a rabbit. To measure the diffusion time of the two materials in the tumor interstitium, the rabbit was euthanized and the corpus imaged using CT over the next 24 hours to measure the spatial and temporal distribution of each material.

[2] = tested on: V79 Chinese Hamster Ovary cancer cells; assay: In vitro radiation enhancement, survival of irradiated tumor cells; assay type: cell-based; details: radiation dosage of 9.0 Gy
From the text: The effect of the new radiodense compositions on cancer cells was also studied in vitro. Individual V79 Chinese Hamster Ovary cancer cells were suspended in nutrient medium in test tubes and mixed with a sufficient amount of one of several new radiodense compositions to increase the radiodensity of the cell suspension. […] At a radiation energy level of 12 Gy, about 8×10^-1 cells survived in the nutrient medium alone, while only 1×10^-3 to 1×10^-4 survived in the presence of the radiodense materials.

[3] = tested on: human adenocarcinomas (LS 174T); set-up: species or system mice; details: mouse, in vivo
Procedure: Immunologically tolerant mice were implanted with several different human neoplasms. When the tumors reached a size of 1-2 cm, radiodense compositions were injected intratumorally via a percutaneous route using a 27 gauge needle. The mice and their tumors where then serially imaged with computed tomography to determine the local pharmacokinetics of the injectates by measuring the x-ray attenuation (in HU) of regions of interest.
FIG. 3 is a plot of the temporal change of x-ray attenuation in a mouse bearing a human adenocarcinomas (LS 174T). The radiodense material was a water soluble, small molecule radiodense material (Omnipaque™ with a concentration of 350 mg I/ml as iohexol). A peak contrast of nearly 3000 HU was attained in the center of the tumor, with smaller degrees of contrast enhancement surrounding the injected area. This small molecule was rapidly cleared with values of only 2000 HU at the peak location 60 minutes later.

VX2 tumors [4] = assay: In vivo radiation enhancement, systemic radiodense material plus internal radiation probe; set-up: species or system rabbit; details: systemic bolus 3 ml/kg
Procedure: Three rabbits with VX2 tumors growing in the thigh were used to evaluate the radiation therapy effect of the new radiodense compositions and radiation administered internally. In the first rabbit, iohexol was injected systemically as a bolus in a volume of 3 ml/kg, resulting in a peak enhancement of the leaky edge of the tumor by over 50 HU. Radiation of 30 Gy was administered over 45 minutes using a delivery energy of 40 Kev from the probe tip, which was centered in the tumor. The next day, the rabbit was euthanized following the administration of Evans Blue to demarcate the leaky vasculature of the treated tumor as well as an untreated, control tumor in the opposite thigh. […] All of the viable cells were located in the edge of the treated tumor and this edge of viable cells was much smaller than the rim of viable cells in the untreated tumor. Two additional rabbits were treated with a nearly identical protocol, except that the same radiodense material was given as an intravenous bolus plus a sustaining infusion to keep the leaky portions of the tumor enhanced for the entire duration of the radiation treatment. In these two experiments, no evidence of viable tumor was seen on serial computed tomography studies over the next several days. […]

With `CCOC(=O)c1c(I)c(NC(C)=O)c(I)c(NC(C)=O)c1I` [Win 8883, ethyl-bis(3,5-acetylamino)-2,4,6-triiodobenzoate] as the molecule, how does the “Volume (total number of intratumoral voxels containing at least 200 HU)” value (from here on “Volume”) (VX2 tumors [1]; 1.5 Hrs) read?
Its value is 10898 voxels.

And the “Volume” value (VX2 tumors [1]; 4.5 Hrs)?
The value was 11826 voxels.

And the “Volume” value (VX2 tumors [1]; 21.0 Hrs)?
The value was 11682 voxels.

And the “Volume” value (VX2 tumors [1]; Initial)?
The value was 10420 voxels.

How did the “relative effectiveness among the radiodense materials” value [2] turn out when `CC(=O)N(CC(O)CN(C(C)=O)c1c(I)c(C(=O)NCC(O)CO)c(I)c(C(=O)NCC(O)CO)c1I)c1c(I)c(C(=O)NCC(O)CO)c(I)c(C(=O)NCC(O)CO)c1I` (stereo not drawn) [iodix, iodixanol] was run?
The value was “more effective”.

Which “x-ray attenuation at the peak location 60 minutes later” value [3] does the source give for `CC(=O)N(CC(O)CO)c1c(I)c(C(=O)NCC(O)CO)c(I)c(C(=O)NCC(O)CO)c1I` (stereo not drawn) [iohexol] here?
Its value is 2000 HU.

And the “Volume” value (VX2 tumors [1]; 1.5 Hrs)?
Its value is 23912 voxels.

What about the “Volume” value (VX2 tumors [1]; 4.5 Hrs) of the same molecule?
The value was 22104 voxels.

What about the “Volume” value (VX2 tumors [1]; 21.0 Hrs) of the same molecule?
Its value is 44720 voxels.

And the “Volume” value (VX2 tumors [1]; Initial)?
The value was 12722 voxels.

What about the “peak enhancement of the leaky edge of the tumor” value (VX2 tumors [4]) of the same molecule?
The value was “over 50 HU”.

What about the “necrosis of viable tumor cells in the treated leg, compared with the control” value (VX2 tumors [4]; 30 Gy over 45 minutes at 40 Kev from probe centered in tumor, histology next day) of the same molecule?
The value was “about 95%”.
